We go through 19 substances from patent publication US20230190924A1, “ANTIGEN OF ALLERGY AND EPITOPE THEREOF” (HOYU CO., LTD., priority 2017, published 2023).

The test relates to IgE antibodies from patients. As to the kind of experiment: Epitope mapping (2) overlapping (10-amino-acid peptides) and (3) alanine scanning on peptide arrays. It is filed as binding, human. Conditions: for binding to IgE antibodies from patients, sequence comprising a region amino-terminally adjacent to the epitope / binding to IgE antibodies from patients, sequence comprising a region carboxy-terminally adjacent to the epitope: overlapping peptides with flanking sequence; for region within the epitope important for binding to IgE antibodies from patients: procedures (B) overlapping and (C) alanine scanning. An outline of the steps:
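Overlapping 10-mer peptides shifted by one residue, and alanine-substituted peptides, spotted on cellulose and probed with patient and non-egg-allergic sera; IgE binding read by anti-human IgE-HRP chemiluminescence. Signal expressed relative to parent sequence and graded in bands from <20% (no binding) to ≥90% (retained binding).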

Take “SEQ ID NO: 404: sequence comprising a region amino-terminally adjacent to epitope 9 (EVAFININKE; epitope)”: the “binding to IgE antibodies from patients, sequence comprising a region amino-terminally adjacent to the epitope” value was “binding to IgE antibodies from patients”. Turning to “SEQ ID NO: 571: region in epitope 34 (KDEPLNV; epitope)”, the “region within the epitope important for binding to IgE antibodies from patients” value (“region within the epitope important” for short) is “important for binding”. In the case of “SEQ ID NO: 444: region in epitope 16 (QEFPKRKLPG; epitope)”, the “region within the epitope important” value is listed as “important for binding”. As for “SEQ ID NO: 419: region in epitope 11 (DVKLKNLK; epitope)”, the “region within the epitope important” value is “important for binding”. Still for that read-out and setting: in the case of “SEQ ID NO: 647: region in epitope 42 (RLDKDTLQ; epitope)” it was “important for binding”. Same read-out and setting: the entry for “SEQ ID NO: 520: region in epitope 23 (ACKLHRSFVK; epitope)” is “important for binding”; for “SEQ ID NO: 630: region in epitope 41 (YLKMFGQELL; epitope)” it is “important for binding”. Turning to “SEQ ID NO: 660: sequence comprising a region carboxy-terminally adjacent to epitope 46 (DSDSASGET; epitope)”, the “binding to IgE antibodies from patients, sequence comprising a region carboxy-terminally adjacent to the epitope” value is “binding to IgE antibodies from patients”. Turning to “SEQ ID NO: 505: region in epitope 21 (AAPGHGID; epitope)”, the “region within the epitope important” value is given as “important for binding”.

“SEQ ID NO: 516: sequence comprising a region amino-terminally adjacent to epitope 23 (PCRGACKLH; epitope)”: the “binding to IgE antibodies from patients, sequence comprising a region amino-terminally adjacent to the epitope” value is “binding to IgE antibodies from patients”. Same read-out and setting: in the case of “SEQ ID NO: 492: sequence comprising a region amino-terminally adjacent to epitope 21 (LAAPGHG; epitope)” it was “binding to IgE antibodies from patients”. For “SEQ ID NO: 562: region in epitope 34 (DEPLNV; epitope)”, the “region within the epitope important” value is listed as “important for binding”. In the case of “SEQ ID NO: 482: region in epitope 20 (ATNLKAINI; epitope)”, the “region within the epitope important” value is listed as “important for binding”.

As to “SEQ ID NO: 503: sequence comprising a region amino-terminally adjacent to epitope 21 (GFALAAPGHG; epitope)”, the “binding to IgE antibodies from patients, sequence comprising a region amino-terminally adjacent to the epitope” value is “binding to IgE antibodies from patients”.

For “SEQ ID NO: 452: sequence comprising a region amino-terminally adjacent to epitope 17 (TNLTDSSKWK; epitope)”, the “binding to IgE antibodies from patients, sequence comprising a region amino-terminally adjacent to the epitope” value is given as “binding to IgE antibodies from patients”.

As for “SEQ ID NO: 632: sequence comprising a region carboxy-terminally adjacent to epitope 41 (QELLFGRLDK; epitope)”, the “binding to IgE antibodies from patients, sequence comprising a region carboxy-terminally adjacent to the epitope” value is given as “binding to IgE antibodies from patients”. On to “SEQ ID NO: 323: region in epitope 1 (VEEYNG; epitope)”, for which the “region within the epitope important” value is given as “important for binding”. On to “SEQ ID NO: 605: sequence comprising a region amino-terminally adjacent to epitope 38 (LVNYSPTKG; epitope)”, for which the “binding to IgE antibodies from patients, sequence comprising a region amino-terminally adjacent to the epitope” value was “binding to IgE antibodies from patients”. On to “SEQ ID NO: 330: region in epitope 3 (RGREDKMK; epitope)”, for which the “region within the epitope important” value is on record as “important for binding”.
